Measured values from patent US9676757B2, “Heterocyclic compounds as NaV channel inhibitors and uses thereof” (Merck Patent GmbH, priority 2014, dated 2017).
Read-outs that look alike come from different tables or passages of the source.

Target: Nav1.6 (Homo sapiens, UniProt Q9UQD0)
Experiment: Nav two-pulse protocol, IonWorks Quattro electrophysiology
Format: cell-based
Conditions: -120 mV to 0 mV, compound incubated 300 s
Description: Compound Plate Preparation
Supplied compounds were sent as Assay Ready Plates, with 2 μL per well of compound in DMSO at 300× the final assay concentrations as described above and in the project proposal. All assay plates are stored at in a −80° C. freezer.
On the day of the assay, 198 μL of external solution was added to the appropriate assay plate and mixed thoroughly. This provided a 1:100 dilution. A further 1:3 dilution occurred upon addition to the cells in the IonWorks, giving a 1:300 dilution in total.
On each assay plate, at least 8 wells were reserved for vehicle control (0.3% DMSO) and at least 8 wells for each positive control specific to the cell line tested. The positive controls were tested in an 8-point dose response with 3-fold dilutions to determine an IC50 value for each run. The positive control compounds are outlined below.
Ion Channel Positive Control & Concentrations
Nav1.6/1.2 Lidocaine: 8, 3-fold dilutions starting at 100 μM
Electrophysiological Recording Solutions
The solutions for recording currents were are follows:
Amphotericin B was used to obtain electrical access to the cell interior at a final concentration of 200 μg/ml in internal recording solution.
Experimental Protocols & Data Analysis
Nav currents were evoked by stepping from a holding potential of −120 mV to 0 mV for 2.5 s (pulse 1), followed by a 5 ms inter-pulse interval, and stepping from a holding potential of −120 mV to 0 mV for 20 ms (pulse 2). The voltage protocol was applied (Pre), compounds added, incubated for 300 seconds, and the voltage protocol was applied a final time (Post) on the IonWorks Quattro.
The parameters measured were the maximum inward current evoked on stepping to 0 mV from the 1st and 2nd pulse. All data were filtered for seal quality, seal drop, and current amplitude. The peak current amplitude (Peak) was calculated before (Pre) and after (Post) compound addition to the amount of block was assessed by dividing the Post-compound current amplitude by the Pre-compound current amplitude. These procedures were implemented for the 1st and 2nd pulse.

Chain of Nav1.6 (Q9UQD0 whole entry): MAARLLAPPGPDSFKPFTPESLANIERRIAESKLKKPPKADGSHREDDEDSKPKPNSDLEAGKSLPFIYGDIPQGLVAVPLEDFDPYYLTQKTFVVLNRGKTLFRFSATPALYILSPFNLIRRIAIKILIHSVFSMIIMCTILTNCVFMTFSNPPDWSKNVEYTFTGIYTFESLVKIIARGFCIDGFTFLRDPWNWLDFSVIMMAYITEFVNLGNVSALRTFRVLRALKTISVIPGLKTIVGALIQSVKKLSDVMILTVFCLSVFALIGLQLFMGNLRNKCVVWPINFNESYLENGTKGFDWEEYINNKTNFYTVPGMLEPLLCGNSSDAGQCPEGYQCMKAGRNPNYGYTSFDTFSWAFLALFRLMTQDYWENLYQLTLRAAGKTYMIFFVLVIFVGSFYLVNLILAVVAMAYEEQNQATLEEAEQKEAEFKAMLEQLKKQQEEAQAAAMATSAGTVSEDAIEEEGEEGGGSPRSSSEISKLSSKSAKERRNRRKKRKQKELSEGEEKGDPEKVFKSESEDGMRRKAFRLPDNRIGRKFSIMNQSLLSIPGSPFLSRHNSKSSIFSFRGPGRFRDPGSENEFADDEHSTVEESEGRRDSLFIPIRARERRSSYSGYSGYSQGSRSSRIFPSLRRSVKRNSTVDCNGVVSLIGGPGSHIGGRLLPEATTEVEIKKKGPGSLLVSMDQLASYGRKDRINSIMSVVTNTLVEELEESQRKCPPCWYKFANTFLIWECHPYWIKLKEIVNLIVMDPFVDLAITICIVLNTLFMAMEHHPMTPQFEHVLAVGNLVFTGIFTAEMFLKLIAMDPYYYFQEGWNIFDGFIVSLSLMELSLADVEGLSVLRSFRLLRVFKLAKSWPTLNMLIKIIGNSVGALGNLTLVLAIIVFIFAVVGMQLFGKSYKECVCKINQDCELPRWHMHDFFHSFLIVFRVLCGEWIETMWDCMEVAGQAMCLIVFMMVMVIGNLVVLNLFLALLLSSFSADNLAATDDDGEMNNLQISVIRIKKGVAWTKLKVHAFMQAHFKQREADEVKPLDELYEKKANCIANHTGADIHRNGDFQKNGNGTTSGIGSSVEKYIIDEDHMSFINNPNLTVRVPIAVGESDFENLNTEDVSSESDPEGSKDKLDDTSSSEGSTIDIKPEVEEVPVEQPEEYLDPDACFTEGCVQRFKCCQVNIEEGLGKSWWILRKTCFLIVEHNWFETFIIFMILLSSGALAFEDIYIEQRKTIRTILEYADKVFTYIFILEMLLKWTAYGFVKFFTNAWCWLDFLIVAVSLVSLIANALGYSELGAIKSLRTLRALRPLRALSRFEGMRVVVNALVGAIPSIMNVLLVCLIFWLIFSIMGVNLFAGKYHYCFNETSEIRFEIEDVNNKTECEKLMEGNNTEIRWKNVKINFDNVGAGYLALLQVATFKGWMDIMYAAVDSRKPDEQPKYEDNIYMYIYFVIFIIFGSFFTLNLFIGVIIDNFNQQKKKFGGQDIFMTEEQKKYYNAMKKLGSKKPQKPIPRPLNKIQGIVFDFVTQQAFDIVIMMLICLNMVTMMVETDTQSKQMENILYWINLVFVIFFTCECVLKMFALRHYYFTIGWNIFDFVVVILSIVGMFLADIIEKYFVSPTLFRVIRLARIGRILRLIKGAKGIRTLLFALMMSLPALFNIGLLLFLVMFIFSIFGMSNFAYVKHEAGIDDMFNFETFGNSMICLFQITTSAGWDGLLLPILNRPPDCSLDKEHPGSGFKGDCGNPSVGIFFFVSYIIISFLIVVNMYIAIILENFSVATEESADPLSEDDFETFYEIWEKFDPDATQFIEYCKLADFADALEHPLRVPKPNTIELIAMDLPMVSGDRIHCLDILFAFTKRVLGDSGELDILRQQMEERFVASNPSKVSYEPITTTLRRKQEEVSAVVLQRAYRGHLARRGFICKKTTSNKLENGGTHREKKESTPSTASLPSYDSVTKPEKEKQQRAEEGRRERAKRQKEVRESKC

SMILES | IC50 (read-out: Nav1.6 Tonic) | IC50 (read-out: Nav1.6 inac)
CC(C)COc1cccc(CN2CCC(COCc3ccccn3)C2)c1 (stereo not drawn) [Compound 35, 2-[1-(3-Isobutoxy-benzyl)-pyrrolidin-3-ylmethoxymethyl]-pyridine] | > 20 µM | 1 to 5 µM
CC(C)OCc1cccc(CN2CCC(CNC(=O)c3ccccn3)C2)c1 (stereo not drawn) [Compound 36, Pyridine-2-carboxylic acid [1-(3-isopropoxymethyl-benzyl)-pyrrolidin-3-ylmethyl]-amide] | > 20 µM | < 1 µM
C[C@@]1(C(=O)NCc2ccccn2)CCN(Cc2cccc(Oc3ccccc3)c2)C1 [Compound 37, (R)-3-methyl-1-(3-phenoxybenzyl)-N-(pyridin-2-ylmethyl)pyrrolidine-3-carboxamide] | > 20 µM | 1 to 5 µM
C[C@]1(C(=O)NCc2ccccn2)CCN(Cc2cccc(Oc3ccccc3)c2)C1 [Compound 38, (S)-3-methyl-1-(3-phenoxybenzyl)-N-(pyridin-2-ylmethyl)pyrrolidine-3-carboxamide] | > 20 µM | > 5 µM
CC1(C(=O)N2CCNCC2)CCN(Cc2cccc(Oc3ccccc3)c2)C1 (stereo not drawn) [Compound 39, [3-Methyl-1-(3-phenoxy-benzyl)-pyrrolidin-3-yl]-piperazin-1-yl-methanone] | > 20 µM | 1 to 5 µM
CCNC(=O)C1(C)CCN(C(=O)c2cccc(Oc3ccccc3)c2)C1 (stereo not drawn) [Compound 40, 3-Methyl-1-(3-phenoxy-benzoyl)-pyrrolidine-3-carboxylic acid ethylamide] | 10 to 20 µM | < 1 µM
CCNC(=O)C1(C)CCN(Cc2cccc(OC(F)(F)F)c2)C1 (stereo not drawn) [Compound 41, 3-Methyl-1-(3-trifluoromethoxy-benzyl)-pyrrolidine-3-carboxylic acid ethylamide] | 10 to 20 µM | < 1 µM
CC(C)C[S+]([O-])c1cccc(CN2CCC(C(=O)NCc3ccccn3)C2)c1 (stereo not drawn) [Compound 42, 1-[3-(2-Methyl-propane-1-sulfinyl)-benzyl]-pyrrolidine-3-carboxylic acid (pyridin-2-ylmethyl)-amide] | > 20 µM | > 5 µM
Cc1cccc(Oc2cccc(CN3CCC(C(=O)NCc4ccccn4)C3)c2)c1 (stereo not drawn) [Compound 43, 1-(3-m-Tolyloxy-benzyl)-pyrrolidine-3-carboxylic acid (pyridin-2-ylmethyl)-amide] | > 20 µM | > 5 µM
O=C(NCc1ccccn1)C1CCN(Cc2cccc(Oc3ncccn3)c2)C1 (stereo not drawn) [Compound 44, 1-[3-(Pyrimidin-2-yloxy)-benzyl]-pyrrolidine-3-carboxylic acid (pyridin-2-ylmethyl)-amide] | > 20 µM | > 5 µM
Cc1cccc(Oc2cccc(CN3CCC(C)(C(=O)NCc4ccccn4)C3)c2)c1 (stereo not drawn) [Compound 45, 3-Methyl-1-(3-m-tolyloxy-benzyl)-pyrrolidine-3-carboxylic acid (pyridin-2-ylmethyl)-amide] | > 20 µM | > 5 µM
CC(C)CSc1cccc(CN2CCC(C(=O)OCc3ccccn3)C2)c1 (stereo not drawn) [Compound 46, 1-(3-Isobutylsulfanyl-benzyl)-pyrrolidine-3-carboxylic acid pyridin-2-ylmethyl ester] | > 20 µM | 1 to 5 µM
CC(C)CS(=O)(=O)c1cccc(CN2CCC(C(=O)OCc3ccccn3)C2)c1 (stereo not drawn) [Compound 47, 1-[3-(2-Methyl-propane-1-sulfonyl)-benzyl]-pyrrolidine-3-carboxylic acid pyridin-2-ylmethyl ester] | > 20 µM | 1 to 5 µM
CC(C)COc1cccc(CN2CCC(c3noc(-c4ccccn4)n3)C2)c1 (stereo not drawn) [Compound 48, 2-{3-[1-(3-Isobutoxy-benzyl)-pyrrolidin-3-yl]-[1,2,4]oxadiazol-5-yl}-pyridine] | > 20 µM | 1 to 5 µM
COc1cccnc1-c1nc(C2CCN(Cc3cccc(OCC(C)C)c3)C2)no1 (stereo not drawn) [Compound 49, 2-{3-[1-(3-Isobutoxy-benzyl)-pyrrolidin-3-yl]-[1,2,4]oxadiazol-5-yl}-3-methoxy-pyridine] | > 20 µM | 1 to 5 µM
CC(C)COc1cccc(CN2CCC(c3noc(-c4ncccc4F)n3)C2)c1 (stereo not drawn) [Compound 50, 3-Fluoro-2-{3-[1-(3-isobutoxy-benzyl)-pyrrolidin-3-yl]-[1,2,4]oxadiazol-5-yl}-pyridine] | > 20 µM | > 5 µM
Cc1cccnc1-c1nc(C2CCN(Cc3cccc(OCC(C)C)c3)C2)no1 (stereo not drawn) [Compound 51, 2-{3-[1-(3-Isobutoxy-benzyl)-pyrrolidin-3-yl]-[1,2,4]oxadiazol-5-yl}-3-methyl-pyridine] | > 20 µM | 1 to 5 µM

SMILES | IC50 (read-out: Nav1.6 Tonic) | IC50 (read-out: Nav1.6 inac)
COc1ccnc(-c2nc(C3CCN(Cc4cccc(OCC(C)C)c4)C3)no2)c1 (stereo not drawn) [Compound 52, 2-{3-[1-(3-Isobutoxy-benzyl)-pyrrolidin-3-yl]-[1,2,4]oxadiazol-5-yl}-4-methoxy-pyridine] | > 20 µM | 1 to 5 µM
CC(C)COc1cccc(CN2CCC(c3noc(-c4cc(Cl)ccn4)n3)C2)c1 (stereo not drawn) [Compound 53, 4-Chloro-2-{3-[1-(3-isobutoxy-benzyl)-pyrrolidin-3-yl]-[1,2,4]oxadiazol-5-yl}-pyridine] | > 20 µM | 1 to 5 µM
COc1ccc(-c2nc(C3CCN(Cc4cccc(OCC(C)C)c4)C3)no2)nc1 (stereo not drawn) [Compound 54, 2-{3-[1-(3-Isobutoxy-benzyl)-pyrrolidin-3-yl]-[1,2,4]oxadiazol-5-yl}-5-methoxy-pyridine] | > 20 µM | 1 to 5 µM
Cc1ccc(-c2nc(C3CCN(Cc4cccc(OCC(C)C)c4)C3)no2)nc1 (stereo not drawn) [Compound 55, 2-{3-[1-(3-Isobutoxy-benzyl)-pyrrolidin-3-yl]-[1,2,4]oxadiazol-5-yl}-5-methyl-pyridine] | > 20 µM | 1 to 5 µM
COc1cccc(-c2nc(C3CCN(Cc4cccc(OCC(C)C)c4)C3)no2)n1 (stereo not drawn) [Compound 56, 2-{3-[1-(3-Isobutoxy-benzyl)-pyrrolidin-3-yl]-[1,2,4]oxadiazol-5-yl}-6-methoxy-pyridine] | > 20 µM | 1 to 5 µM
CC(C)COc1cccc(CN2CCC(c3noc(Cc4ccccn4)n3)C2)c1 (stereo not drawn) [Compound 57, 2-{3-[1-(3-Isobutoxy-benzyl)-pyrrolidin-3-yl]-[1,2,4]oxadiazol-5-ylmethyl}-pyridine] | > 20 µM | 1 to 5 µM
CC(C)COc1cccc(CN2CCC(c3noc(-c4cc(Br)ccn4)n3)C2)c1 (stereo not drawn) [Compound 58, 4-Bromo-2-{3-[1-(3-isobutoxy-benzyl)-pyrrolidin-3-yl]-[1,2,4]oxadiazol-5-yl}-pyridine] | > 20 µM | > 5 µM
CC(C)COc1cccc(CN2CCC(c3noc(-c4ccc(F)cn4)n3)C2)c1 (stereo not drawn) [Compound 59, 5-Fluoro-2-{3-[1-(3-isobutoxy-benzyl)-pyrrolidin-3-yl]-[1,2,4]oxadiazol-5-yl}-pyridine] | > 20 µM | > 5 µM
CC(C)COc1cccc(CN2CCC(n3cc(-c4ccccn4)nn3)C2)c1 (stereo not drawn) [Compound 60, 2-{1-[1-(3-Isobutoxy-benzyl)-pyrrolidin-3-yl]-1H-[1,2,3]triazol-4-yl}-pyridine] | > 20 µM | 1 to 5 µM
Cc1cccc(-c2cn(C3CCN(Cc4cccc(OCC(C)C)c4)C3)nn2)n1 (stereo not drawn) [Compound 61, 2-{1-[1-(3-Isobutoxy-benzyl)-pyrrolidin-3-yl]-1H-[1,2,3]triazol-4-yl}-6-methyl-pyridine] | > 20 µM | > 5 µM
COc1cccc(-c2cn(C3CCN(Cc4cccc(OCC(C)C)c4)C3)nn2)n1 (stereo not drawn) [Compound 62, 2-{1-[1-(3-Isobutoxy-benzyl)-pyrrolidin-3-yl]-1H-[1,2,3]triazol-4-yl}-6-methoxy-pyridine] | > 20 µM | 1 to 5 µM
CC(C)COc1cccc(CN2CCC(n3cc(-c4cccc(Br)n4)nn3)C2)c1 (stereo not drawn) [Compound 63, 2-Bromo-6-{1-[1-(3-isobutoxy-benzyl)-pyrrolidin-3-yl]-1H-[1,2,3]triazol-4-yl}-pyridine] | > 20 µM | > 5 µM
CC(C)COc1cccc(CN2CCC(c3nnc(CO)o3)C2)c1 (stereo not drawn) [Compound 64, {5-[1-(3-Isobutoxy-benzyl)-pyrrolidin-3-yl]-[1,3,4]oxadiazol-2-yl}-methanol] | > 20 µM | 1 to 5 µM
COc1ccccc1CNC(=O)C1CCN(Cc2cccc(Oc3ccccc3)c2)C1 (stereo not drawn) [Compound 65, 1-(3-Phenoxy-benzyl)-pyrrolidine-3-carboxylic acid 2-methoxy-benzylamide] | > 20 µM | < 1 µM
COc1ccc(CNC(=O)C2CCN(Cc3cccc(Oc4ccccc4)c3)C2)cc1 (stereo not drawn) [Compound 66, 1-(3-Phenoxy-benzyl)-pyrrolidine-3-carboxylic acid 4-methoxy-benzylamide] | 10 to 20 µM | < 1 µM
O=C(NCc1ccc(OC(F)(F)F)cc1)C1CCN(Cc2cccc(Oc3ccccc3)c2)C1 (stereo not drawn) [Compound 67, 1-(3-Phenoxy-benzyl)-pyrrolidine-3-carboxylic acid 4-trifluoromethoxy-benzylamide] | 10 to 20 µM | < 1 µM
